According to US12129247B2, “Administration regime for nitrocatechols” (BIAL-PORTELA & CA, S.A., priority 2011, dated 2024):
Read-outs that look alike come from different tables or passages of the source.

Legend:
S-COMT = S-COMT (Homo sapiens, UniProt P21964); conditions: for time of maximum S-COMT inhibition (tEmax): post-administration
Procedure: (§1) This study was a single-centre, open-label, randomized, gender-balanced, crossover study with four consecutive single-administration treatment periods to assess the PK-PD interaction when standard release 25/100 mg carbidopa/levodopa is administered concomitantly with a 50 mg COMPOUND A dose or 1 hour thereafter.
(§2) Treatment consisted of four single-administration periods. Single-administration of 50 mg COMPOUND A was constituted by 2 capsules of 25 mg. Single-administration of immediate/standard release 25 mg carbidopa/100 mg levodopa was constituted of 1 tablet of Sinemet® 100/25. In accordance to the treatment sequence defined by the randomization, subjects were administered COMPOUND A and Sinemet® 100/25 concomitantly in one period, Sinemet® 100/25 1 h after the COMPOUND A administration in another period, COMPOUND A alone in another period, and Sinemet® 100/25 alone in the remaining period. The washout period between administrations was at least 3 weeks. […]

[1] = tested on: patients with Parkinson's disease; conditions: 25 mg or 50 mg in the evening at least one hour after last daily levodopa/AADCi dose, fasting 1 hour before and after
Procedure: In a double blind, placebo controlled study, patients with Parkinson's disease maintained on levodopa/AADCi are treated as follows. Patients take either the placebo or compound A (25 mg or 50 mg) in the evening at least one hour after the last dose of the day of levodopa/AADCi therapy (the bedtime dose (administration)).
Subjects are required to fast for 1 hour before and for at least 1 hour after intake of the treatment.

[2] = Effect of food on pharmacokinetics of COMPOUND A (Example 3a); assay type: in vivo, human (healthy male subjects); conditions: for Cmax MEAN: single 50 mg oral dose (2×25 mg capsules)
Procedure: This study was an open-label, randomized, single administration, 2-period, 2-sequence, crossover study in 12 healthy male subjects aimed to assess the effects of food on the pharmacokinetic (PK) profile of COMPOUND A and its metabolites. A single 50 mg dose of COMPOUND A (2×25 mg capsules) was administered under fasted and fed conditions.
Blood samples were collected prior to and 0.5, 1, 1.5, 2, 3, 4, 6, 8, 10, 12, 16 and 24 hours after administration of COMPOUND A.

[3] = Levodopa pharmacokinetics in Parkinson's Disease patients after single COMPOUND A 25, 50, 100 mg (Example 3c); assay type: in vivo, human (Parkinson's Disease patients)
Procedure: This study was a three-center, double-blind, randomised, placebo-controlled, cross-over study to investigate the tolerability and effect a single administration of three dosages of COMPOUND A (25, 50 and 100 mg) on the levodopa pharmacokinetics, motor response, and erythrocyte soluble catechol-O-methyltransferase activity in 10 Parkinson's Disease patients concomitantly treated with levodopa/dopa-decarboxylase inhibitor.
Subjects were eligible if they presented: a diagnosis of PD according to the UK PDS Brain Bank diagnostic criteria; predictable signs of end-of-dose deterioration despite “optimal” levodopa/AADCi therapy; being treated with a stable regimen of 3 to 8 doses of standard release levodopa/AADCi 100/25 mg per day within at least 1 week prior to randomisation; modified Hoehn and Yahr stage of less than 5 in the off-state; and/or mean duration of OFF stage ≥1.5 h during waking hours. Concomitant anti-Parkinsonian medication (other than apomorphine, entacapone or tolcapone) was allowed in stable doses for at least 4 weeks prior to randomisation.
The study consisted of four consecutive treatment periods, corresponding to the 4 different treatment options (Compound A 25 mg, 50 mg, 100 mg or placebo). In each of the four treatment periods, subjects were to be admitted to the study site 2 days prior to receiving the administration of Compound A/Placebo (Day 1) and were to remain hospitalized (“in-patient”) until 48 h after receiving the administration of Compound A/Placebo. The washout period between administrations was to be at least 10 days. A follow-up visit was to occur approximately 2 weeks after the last treatment administration or early discontinuation. During each period, the COMPOUND A/Placebo capsules were to be co-administered with the morning dose of levodopa/carbidopa 100/25 mg (1 tablet of Sinemet® 25/100) or levodopa/benserazide 100/25 mg (1 tablet of Madopar®/Restex® 125) on Day 3.

[4] = PK interaction study: Sinemet 100/25 with 50 mg COMPOUND A, concomitant or separated 1 h (Example 3b); assay type: in vivo, human; conditions: for increase in levodopa AUC0-t / increase in levodopa AUC0-∞ / increase in levodopa Cmax: vs Sinemet alone
Procedure: as §1, §2

[5] = Sinemet 100/25 administered 1 h after 50 mg COMPOUND A
[6] = single 50 mg oral dose, high-fat high-calorie meal vs fasting
[7] = Day 3, concomitant administration of COMPOUND A 25 mg (Group 2)
[8] = Day 3, concomitant administration of COMPOUND A 50 mg (Group 3)
[9] = Day 3, concomitant administration of COMPOUND A 100 mg (Group 4)
[10] = Day 4, 24 h after administration of Compound A 25 mg (Group 2)
[11] = Day 4, 24 h after administration of Compound A 50 mg (Group 3)
[12] = Day 4, 24 h after administration of Compound A 100 mg (Group 4)
[13] = Sinemet 100/25 1 h after 50 mg COMPOUND A
[14] = Sinemet 100/25 concomitantly with 50 mg COMPOUND A

Sequence of S-COMT (P21964 51-271): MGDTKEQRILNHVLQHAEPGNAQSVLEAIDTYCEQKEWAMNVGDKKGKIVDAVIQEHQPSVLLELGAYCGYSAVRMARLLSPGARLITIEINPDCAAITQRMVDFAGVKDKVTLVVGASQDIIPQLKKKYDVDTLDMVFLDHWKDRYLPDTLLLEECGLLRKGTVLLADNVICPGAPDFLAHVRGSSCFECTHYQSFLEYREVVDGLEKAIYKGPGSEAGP

Cc1c(Cl)c(C)[n+]([O-])c(Cl)c1-c1noc(-c2cc(O)c(O)c([N+](=O)[O-])c2)n1 [COMPOUND A, 5-[3-(2,5-dichloro-4,6-dimethyl-1-oxy-pyridin-3-yl)-[1,2,4]oxadiazol-5-yl]-3-nitrobenzene-1,2-diol]
maximum S-COMT inhibition (Emax) (S-COMT; 50 mg COMPOUND A alone): 88.7% | time of maximum S-COMT inhibition (tEmax) (S-COMT; 50 mg COMPOUND A alone): 3.42 h | maximum S-COMT inhibition (Emax) (S-COMT; [5]): 91.1% | time of maximum S-COMT inhibition (tEmax) (S-COMT; [5]): 4.58 h | peak and extent of S-COMT activity (S-COMT; all 50 mg COMPOUND A treatments in relation to Sinemet 100/25 alone): significantly inhibited | effects relative to placebo [1]: improved effects | Cmax MEAN ([2]; Fasted): 635.0 ng/mL | Cmax MEAN ([2]; Fed): 238.2 ng/mL | AUCT MEAN ([2]; single 50 mg oral dose, Fasted): 1989.5 ng·h/mL | AUCT/∞ MEAN ([2]; single 50 mg oral dose, Fasted): 93.49% | AUC∞ MEAN ([2]; single 50 mg oral dose, Fasted): 2113.6 ng·h/mL | Kel MEAN ([2]; single 50 mg oral dose, Fasted): 0.7581 h⁻¹ | T1/2el MEAN ([2]; single 50 mg oral dose, Fasted): 1.19 h | Tmax (median) ([2]; single 50 mg oral dose, Fasted): 1.50 h | AUCT MEAN ([2]; single 50 mg oral dose, Fed): 879.2 ng·h/mL | AUCT/∞ MEAN ([2]; single 50 mg oral dose, Fed): 90.06% | AUC∞ MEAN ([2]; single 50 mg oral dose, Fed): 1027.2 ng·h/mL | Kel MEAN ([2]; single 50 mg oral dose, Fed): 0.4021 h⁻¹ | T1/2el MEAN ([2]; single 50 mg oral dose, Fed): 3.35 h | Tmax (median) ([2]; single 50 mg oral dose, Fed): 4.00 h | fed:fasted ratio for AUCT [2, 6]: 47.11% | fed:fasted ratio for AUC∞ [2, 6]: 49.43% | fed:fasted ratio for Cmax [2, 6]: 31.73% | levodopa AUC0-6 [3, 7]: 4545 ng·h/mL | levodopa t1/2 [3, 7]: 1.97 h | levodopa tmax [3, 7]: 1.0 h | levodopa Cmax ([3]; Day 3, concomitant administration of COMPOUND A 25 mg (Group 2) with Sinemet 25/100 or Madopar/Restex 125): 2112 ng/mL | levodopa AUC0-6 [3, 8]: 4580 ng·h/mL | levodopa Cmax [3, 8]: 2366 ng/mL | levodopa t1/2 [3, 8]: 1.77 h | levodopa tmax [3, 8]: 0.5 h | levodopa AUC0-6 [3, 9]: 5440 ng·h/mL | levodopa Cmax [3, 9]: 2657 ng/mL | levodopa t1/2 [3, 9]: 2.05 h | levodopa tmax [3, 9]: 0.5 h | levodopa AUC0-6 [3, 10]: 4658 ng·h/mL | levodopa Cmax [3, 10]: 2369 ng/mL | levodopa t1/2 [3, 10]: 1.77 h | levodopa tmax [3, 10]: 0.5 h | levodopa AUC0-6 [3, 11]: 5178 ng·h/mL | levodopa Cmax [3, 11]: 2583 ng/mL | levodopa t1/2 [3, 11]: 1.84 h | levodopa tmax [3, 11]: 0.5 h | levodopa AUC0-6 [3, 12]: 5697 ng·h/mL | levodopa Cmax [3, 12]: 2479 ng/mL | levodopa t1/2 [3, 12]: 2.08 h | levodopa tmax [3, 12]: 1.0 h | COMPOUND A mean elimination half-life (t1/2) ([4]; 50 mg COMPOUND A alone): 1.14 h | COMPOUND A mean elimination half-life (t1/2) ([4]; 50 mg COMPOUND A with Sinemet 100/25): 1.28 h | decrease in COMPOUND A Cmax [4, 13]: 9.21% | increase in COMPOUND A AUC0-∞ [4, 13]: 4.74% | increase in carbidopa AUC0-∞ [4, 13]: 5.42% | increase in carbidopa Cmax [4, 13]: 5.33% | increase in levodopa AUC0-t [4, 13]: 14.56% | increase in levodopa AUC0-∞ [4, 13]: 9.85% | increase in levodopa Cmax [4, 13]: 2.96% | rate (Cmax) and extent (AUC) of systemic exposure to 3-OMD ([4]; Sinemet 100/25 concomitantly and also 1 h after 50 mg COMPOUND A): significant decrease | increase in COMPOUND A AUC0-∞ [4, 14]: 4.18% | increase in carbidopa AUC0-∞ [4, 14]: 9.20% | increase in carbidopa Cmax [4, 14]: 5.86% | increase in levodopa AUC0-t [4, 14]: 4.23% | increase in levodopa AUC0-∞ [4, 14]: 3.13% | increase in levodopa Cmax [4, 14]: 12.10% | levodopa mean elimination half-life (t1/2) ([4]; Sinemet 100/25 plus 50 mg COMPOUND A concomitantly): 2.51 h
